In patent US10407381B2 (THE BOARD OF TRUSTEES OF THE UNIVERSITY OF ILLINOIS, priority 2015, dated 2019):
Like-named read-outs stand apart in the source and are kept apart here.

Key:
[1] = molecular target: 5-HT2B (Homo sapiens, UniProt P41595); experiment: Calcium flux (FLIPR) assay, human 5-HT2B stably expressed in HEK-293 (Flp-In-293) cells; conditions: human 5-HT2B in HEK-293 cells; for EC50: EC50, nM 5-HT2B, NA = no activity at 10 μM; for Emax, % 5-HT 5-HT2B: normalized to 5-HT
[2] = molecular target: 5-HT2A (Homo sapiens, UniProt P28223); experiment: Calcium flux (FLIPR) assay, human 5-HT2A stably expressed in HEK-293 (Flp-In-293) cells; conditions: human 5-HT2A in HEK-293 cells, FLIPR; for EC50: NA = no activity at 10 μM; for Emax, % 5-HT 5-HT2A: normalized to 5-HT
[3] = molecular target: T1, human 5-HT2C-INI (Homo sapiens, UniProt P28335); experiment: Calcium flux (FLIPR) assay, human 5-HT2C-INI stably expressed in HEK-293 (Flp-In-293) cells; conditions: for Emax, % 5-HT 5-HT2C: normalized to 5-HT
T1 sequence (P28335 33-458): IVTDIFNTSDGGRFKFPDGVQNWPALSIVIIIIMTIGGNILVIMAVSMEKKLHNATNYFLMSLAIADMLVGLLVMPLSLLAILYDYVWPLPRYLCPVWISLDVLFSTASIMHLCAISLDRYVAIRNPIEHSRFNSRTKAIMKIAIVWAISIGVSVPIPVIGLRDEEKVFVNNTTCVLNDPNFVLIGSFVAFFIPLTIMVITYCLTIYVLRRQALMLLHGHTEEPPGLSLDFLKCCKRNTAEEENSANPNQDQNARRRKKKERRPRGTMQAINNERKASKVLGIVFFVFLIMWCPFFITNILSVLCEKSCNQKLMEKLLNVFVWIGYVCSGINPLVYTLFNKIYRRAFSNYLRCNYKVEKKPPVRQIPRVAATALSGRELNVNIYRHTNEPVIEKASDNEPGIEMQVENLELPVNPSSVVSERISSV

[4] = EC50, nM 5-HT2C, human 5-HT2C-INI in HEK-293 cells, FLIPR, NA = no activity at 10 μM
[5] = human 5-HT2C-INI in HEK-293 cells, FLIPR
[6] = read-out: EC50, nM 5-HT2C, human 5-HT2C-INI in HEK-293 cells, FLIPR, NA = no activity at 10 μM

5-HT2B, sequence (P41595 whole entry): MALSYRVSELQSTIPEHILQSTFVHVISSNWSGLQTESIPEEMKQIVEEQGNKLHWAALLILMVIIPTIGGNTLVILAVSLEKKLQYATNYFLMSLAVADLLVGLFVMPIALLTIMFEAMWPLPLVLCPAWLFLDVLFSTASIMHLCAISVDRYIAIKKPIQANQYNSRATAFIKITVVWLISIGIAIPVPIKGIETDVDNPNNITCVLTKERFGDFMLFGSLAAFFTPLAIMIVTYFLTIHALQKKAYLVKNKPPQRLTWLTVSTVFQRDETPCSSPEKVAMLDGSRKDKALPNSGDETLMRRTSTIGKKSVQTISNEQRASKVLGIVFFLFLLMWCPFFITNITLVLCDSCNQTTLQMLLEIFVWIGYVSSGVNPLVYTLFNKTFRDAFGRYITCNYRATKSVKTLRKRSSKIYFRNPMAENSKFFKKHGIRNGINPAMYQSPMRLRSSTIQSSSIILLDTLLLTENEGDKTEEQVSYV
5-HT2A, sequence (P28223 whole entry): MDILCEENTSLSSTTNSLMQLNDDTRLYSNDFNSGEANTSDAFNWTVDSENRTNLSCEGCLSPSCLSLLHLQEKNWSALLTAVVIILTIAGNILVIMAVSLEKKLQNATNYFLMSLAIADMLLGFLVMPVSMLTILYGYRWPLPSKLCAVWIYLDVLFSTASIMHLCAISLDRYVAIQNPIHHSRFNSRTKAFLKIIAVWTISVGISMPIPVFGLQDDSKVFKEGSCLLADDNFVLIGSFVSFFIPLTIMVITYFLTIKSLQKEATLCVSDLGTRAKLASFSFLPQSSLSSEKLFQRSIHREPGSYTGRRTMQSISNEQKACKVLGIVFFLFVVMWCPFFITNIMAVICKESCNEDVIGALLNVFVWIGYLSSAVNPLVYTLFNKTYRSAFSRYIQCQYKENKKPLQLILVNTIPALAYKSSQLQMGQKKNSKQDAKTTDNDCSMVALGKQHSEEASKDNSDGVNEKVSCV

COc1cc(F)c(Cl)cc1[C@@H]1C[C@H]1CN (single isomer, unassigned) [(+)-Example 1, (+)-(2-(5-Chloro-4-fluoro-2-methoxyphenyl)cyclopropyl)methanamine]
EC50 [1]: 25 nM | Emax, % 5-HT 5-HT2B [1]: (59%) % 5-HT | EC50 ([2]; EC50, nM 5-HT2A): 81 nM | Emax, % 5-HT 5-HT2A [2]: (93%) % 5-HT | EC50 [3, 4]: 7.6 nM | Emax, % 5-HT 5-HT2C [3, 5]: (97%) % 5-HT

COc1ccc(Cl)c(F)c1[C@@H]1C[C@H]1CN (single isomer, unassigned) [(+)-Example 29, (+)-(2-(3-chloro-2-fluoro-6-methoxyphenyl)cyclopropyl)methanamine]
EC50 [1]: 354 nM | Emax, % 5-HT 5-HT2B [1]: (52%) % 5-HT | EC50 ([2]; EC50, nM 5-HT2A): 212 nM | Emax, % 5-HT 5-HT2A [2]: (85%) % 5-HT | EC50 [3, 4]: 13 nM | Emax, % 5-HT 5-HT2C [3, 5]: (92%) % 5-HT

COc1ccc(F)c(F)c1[C@@H]1C[C@H]1CN (single isomer, unassigned) [(+)-Example 45, (+)-(2-(2,3-Difluoro-6-methoxyphenyl)cyclopropyl)methanamine]
EC50 [1]: 209 nM | Emax, % 5-HT 5-HT2B [1]: (64%) % 5-HT | EC50 ([2]; EC50, nM 5-HT2A): 437 nM | Emax, % 5-HT 5-HT2A [2]: (79%) % 5-HT | EC50 [3, 4]: 9.5 nM | Emax, % 5-HT 5-HT2C [3, 5]: (108%) % 5-HT

COc1cc(F)c(Cl)cc1[C@@H]1C[C@H]1CN (single isomer, unassigned) [(−)-Example 1, (−)-(2-(5-Chloro-4-fluoro-2-methoxyphenyl)cyclopropyl)methanamine]
EC50 [1]: 329 nM | Emax, % 5-HT 5-HT2B [1]: (44%) % 5-HT | EC50 ([2]; EC50, nM 5-HT2A): 235 nM | Emax, % 5-HT 5-HT2A [2]: (88%) % 5-HT | EC50 [3, 4]: 16 nM | Emax, % 5-HT 5-HT2C [3, 5]: (99%) % 5-HT

COc1cc(F)c(F)cc1[C@@H]1C[C@H]1CN (single isomer, unassigned) [(−)-Example 40, (−)-(2-(4,5-Difluoro-2-methoxyphenyl)cyclopropyl)methanamine]
Emax, % 5-HT 5-HT2B [1]: (59%) % 5-HT | EC50 ([2]; EC50, nM 5-HT2A): 511 nM | Emax, % 5-HT 5-HT2A [2]: (76%) % 5-HT | Emax, % 5-HT 5-HT2C [3, 5]: (104%) % 5-HT

CCOc1cc(F)c(Cl)cc1C1CC1CN (single isomer, unassigned; (+)) [(+)-Example 2, (+)-(2-(5-Chloro-2-ethoxy-4-fluorophenyl)cyclopropyl)methanamine]
EC50 [1]: 286 nM | Emax, % 5-HT 5-HT2B [1]: (82%) % 5-HT | EC50 ([2]; EC50, nM 5-HT2A): 194 nM | Emax, % 5-HT 5-HT2A [2]: (66%) % 5-HT | EC50 [3, 4]: 4.1 nM | Emax, % 5-HT 5-HT2C [3, 5]: (92%) % 5-HT

C=C(F)COc1ccc(F)cc1C1CC1CN (single isomer, unassigned; (+)) [(+)-Example 9, (+)-(2-(5-Fluoro-2-((2-fluoroallyl)oxy)phenyl)cyclopropyl)methanamine]
EC50 ([2]; EC50, nM 5-HT2A): 1670 nM | Emax, % 5-HT 5-HT2A [2]: (17%) % 5-HT | EC50 [3, 4]: 22 nM | Emax, % 5-HT 5-HT2C [3, 5]: (91%) % 5-HT

CCOc1cc(F)c(Cl)cc1C1CC1CN (single isomer, unassigned; (-)) [(−)-Example 2, (−)-(2-(5-Chloro-2-ethoxy-4-fluorophenyl)cyclopropyl)methanamine]
EC50 ([2]; EC50, nM 5-HT2A): 1240 nM | Emax, % 5-HT 5-HT2A [2]: (18%) % 5-HT | EC50 [3, 4]: 118 nM | Emax, % 5-HT 5-HT2C [3, 5]: (92%) % 5-HT

C=CCOc1ccc(F)cc1C1CC1CN (single isomer, unassigned; (-)) [(−)-Example 8, (−)-(2-(2-(Allyloxy)-5-fluorophenyl)cyclopropyl)methanamine]
EC50 ([2]; EC50, nM 5-HT2A): 697 nM | Emax, % 5-HT 5-HT2A [2]: (56%) % 5-HT | EC50 [3, 4]: 157 nM | Emax, % 5-HT 5-HT2C [3, 5]: (87%) % 5-HT

NCC1CC1c1cc(F)ccc1OCCF (single isomer, unassigned; (-)) [(−)-Example 10, (−)-(2-(5-Fluoro-2-(2-fluoroethoxy)phenyl)cyclopropyl)methanamine]
EC50 ([2]; EC50, nM 5-HT2A): 2990 nM | Emax, % 5-HT 5-HT2A [2]: (20%) % 5-HT | EC50 [3, 4]: 514 nM | Emax, % 5-HT 5-HT2C [3, 5]: (77%) % 5-HT

CCCOc1cc(F)c(F)cc1C1CC1CN (single isomer, unassigned; (-)) [(−)-Example 43, (−)-(2-(4,5-Difluoro-2-propoxyphenyl)cyclopropyl)methanamine]
EC50 [1]: 2970 nM | Emax, % 5-HT 5-HT2B [1]: (13%) % 5-HT | EC50 ([3]; EC50, nM 5-HT2C): 119 nM | Emax, % 5-HT 5-HT2C [3, 5]: (89%) % 5-HT

NCC1CC1c1c(OCCF)ccc(F)c1F (single isomer, unassigned; (-)) [(−)-Example 47, (−)-(2-(2,3-Difluoro-6-(2-fluoroethoxy)phenyl)cyclopropyl)methanamine]
Emax, % 5-HT 5-HT2B [1]: (29%) % 5-HT | EC50 [3, 4]: 509 nM | Emax, % 5-HT 5-HT2C [3, 5]: (78%) % 5-HT

C=CCOc1ccc(F)c(F)c1C1CC1CN (single isomer, unassigned; (-)) [(−)-Example 49, (−)-(2-(6-(Allyloxy)-2,3-difluorophenyl)cyclopropyl)methanamine]
EC50 [1]: 4460 nM | Emax, % 5-HT 5-HT2B [1]: (26%) % 5-HT | EC50 [3, 4]: 151 nM | Emax, % 5-HT 5-HT2C [3, 5]: (89%) % 5-HT

COc1ccc(F)c(Cl)c1C1CC1CN (single isomer, unassigned; (-)) [(−)-Example 50, (−)-(2-(2-Chloro-3-fluoro-6-methoxyphenyl)cyclopropyl)methanamine]
Emax, % 5-HT 5-HT2A [2]: (72%) % 5-HT | EC50 ([2]; read-out: EC50, nM 5-HT2A): 119 nM | Emax, % 5-HT 5-HT2C [3, 5]: (96%) % 5-HT | EC50 [3, 6]: 3.2 nM

CCOc1ccc(F)c(Cl)c1C1CC1CN (single isomer, unassigned; (-)) [(−)-Example 51, (−)-(2-(2-Chloro-6-ethoxy-3-fluorophenyl)cyclopropyl)methanamine]
EC50 [1]: 1640 nM | Emax, % 5-HT 5-HT2B [1]: (33%) % 5-HT | EC50 [3, 4]: 38 nM | Emax, % 5-HT 5-HT2C [3, 5]: (89%) % 5-HT

NCC1CC1c1c(OCCF)ccc(F)c1Cl (single isomer, unassigned; (-)) [(−)-Example 52, (−)-(2-(2-Chloro-3-fluoro-6-(2-fluoroethoxy)phenyl)cyclopropyl)methanamine]
Emax, % 5-HT 5-HT2B [1]: (29%) % 5-HT | Emax, % 5-HT 5-HT2C [3, 5]: (80%) % 5-HT | EC50 [3, 6]: 135 nM

C=CCOc1ccc(F)c(Cl)c1C1CC1CN (single isomer, unassigned; (-)) [(−)-Example 53, (−)-(2-(6-(Allyloxy)-2-chloro-3-fluorophenyl)cyclopropyl)methanamine]
Emax, % 5-HT 5-HT2B [1]: (57%) % 5-HT | EC50 [3, 4]: 101 nM | Emax, % 5-HT 5-HT2C [3, 5]: (89%) % 5-HT
